From BindingDB's records for doi:10.1016/j.bmc.2017.03.072 (Ewha Womans University, 2017) come the findings set out here.

The experiment addresses Interleukin-6 (Human, UniProt P05231). Nature of the experiment: ChEBML_1684684. As to the method: Inhibition of IL-6 signaling pathway in human HepG2 cells transfected with p-STAT3-Luc assessed as reduction in IL-6 induced STAT3 phosphorylation preincubated for 1 hr followed by IL-6 induction measured after 10 mins by immunoblot analysis

Sequence of Interleukin-6 (P05231 whole entry): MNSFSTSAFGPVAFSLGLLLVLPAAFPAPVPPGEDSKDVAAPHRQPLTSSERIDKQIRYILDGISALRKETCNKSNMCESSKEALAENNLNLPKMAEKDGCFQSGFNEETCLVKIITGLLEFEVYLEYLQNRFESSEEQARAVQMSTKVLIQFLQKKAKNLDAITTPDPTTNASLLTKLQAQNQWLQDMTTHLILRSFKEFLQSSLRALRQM

On to `CCc1ccc(Nc2nc3cc(N)ccc3o2)cc1`, for which half-maximal inhibition (IC50) was put at 18.9 µM.

For `CCc1ccc(Nc2nc3cc(NC(=O)c4ccccc4)ccc3o2)cc1`, the IC50 (commonly the point on the concentration scale where inhibition reaches its midpoint) worked out at 5.8 µM.

In the case of `C=C1C(C)=C(CCCC)C(=O)[C@]1(C)CN1c2ccccc2[C@]2(O)CCO[C@H]12`, inhibition was half-maximal at 20.7 µM (IC50).
